Test results reported in patent publication US6994849B2, “Yeast Metschnikowia fructicola NRRL Y-30752 for inhibiting deleterious microorganisms on plants” (State of Israel, Ministry of Agriculture, Agricultural …, priority 2001, dated 2006).

System: Mf
Experiment: Compatibility of Mf with agrochemicals (CFU in liquid medium)
Type: cell-based, Metschnikowia fructicola
Details: TBZ 0.02%; Teldor 0.015%; Mitos 0.025%; Rovral 0.02%; Switch 0.01%; Imazalil 0.005%; 0-48 h, FIG. 8
Description: In order to establish that Mf is suitable for combination with a variety of commonly employed chemical pesticides, ten percent strength of liquid medium (NYDB) with various concentrations of common agrochemicals added was inoculated with a cell suspension of Mf (25 ml of 10^9 cell/ml) and incubated on a rotary shaker at room temperature. The following commercially available agrochemicals were employed: TBZ (0.02%); Teldor (0.015%); Mitos (0.025%); Rovral (0.02%); Switch (0.01%); and Imazalil (0.005%). Samples were aseptically withdrawn from the at 0 time, 24 h and 48 h of incubation. Samples were serially diluted and aliquots of 30 μl of the dilutions were plated on PDA. Plates were incubated at 25° C. for 3–4 days and colony forming units (CFU) were counted.

C=CCOC(Cn1ccnc1)c1ccc(Cl)cc1Cl (stereo not shown) [Imazalil, 1-(2-2,4-Dichlorophenyl)-2(2-propenyloxy-ethyl)-1Himidazol]
Effect of agrochemical on growth (CFU) of Mf: slowed, but did not prevent, its growth
